Patent US8945361B2, “Electrophoresis standards, methods and kits” (ProteinSimple, priority 2005, dated 2015)
Where a SMILES comes first, the peptide text is derived from it. The star is where a group is joined. 5TAMRA = CN(C)c1ccc2c(c1)Oc1cc(N(C)C)ccc1C21OC(=O)c2cc(C(=O)*)ccc21; X1 = [N-]=[N+]=Nc1c(F)c(F)c(C(=O)*)c(F)c1F

Key:
[1] = pI mobility standard
Source text: The pI of standards can be determined directly in IEF PAGE gels using a pH meter with a microprobe.

[2] = expected pKa's, net charge and pI of the Example 5 peptide; type: physicochemical
Source text: The blocks of lysine (K) and glutamic acid (E) residues contain basic and acidic ionizable groups at a variety of pKa values in keeping with the proximity effects described above. […] The approximate expected net charge on the peptide at various pH values is then as follows: pH 11, −3; pH 10, −2.5; pH 9, −1.7; pH 8, −0.8; pH 7, +0.3; pH 6, +1.2; pH 5, +2.3; pH 4, +3.2; pH 3, +4, pH 2, +4.5; pH 1, +5. […] The peptide is therefore expected to be a useful pI standard that forms a tight band under electrophoretic conditions in a pH gradient. Additional standards of desired pIs can be generated by systematically varying the number of sequential K and E residues in a set of peptides based on the above sequence.

With `C[C@H](NC(=O)CNC(=O)[C@@H](N)CCCCNC(=O)c1c(F)c(F)c(N=[N+]=[N-])c(F)c1F)C(=O)N[C@@H](CCC(=O)O)C(=O)N[C@@H](Cc1c[nH]cn1)C(=O)N[C@@H](Cc1c[nH]cn1)C(=O)N[C@@H](CCCCNC(=O)c1ccc2c(c1)C(=O)OC21c2ccc(N(C)C)cc2Oc2cc(N(C)C)ccc21)C(=O)NCC(=O)O` [H2N—K(ATFB)GAEHHK(5-TAMRA)G-OH] (H-K(X1)GAEHHK(5TAMRA)G-OH) the pI [1] was “approximately 5.45”.

For “Ac—K(ATFB) KKKKKAibAibEEEGG K(5-TAMRA)G-NH2”, the “approximate expected net charge” value ([2]; pH 1) was “~+5”, the “approximate expected net charge” value ([2]; pH 2) was “~+4.5” and the “approximate expected net charge” value ([2]; pH 3) was “~+4”. The “approximate expected net charge” value ([2]; pH 4) was “~+3.2”, the “approximate expected net charge” value ([2]; pH 5) was “~+2.3” and the “approximate expected net charge” value ([2]; pH 6) was “~+1.2”. For the same compound, the “approximate expected net charge” value ([2]; pH 7) was “~+0.3”, the “approximate expected net charge” value ([2]; pH 8) was about −0.8 and the “approximate expected net charge” value ([2]; pH 9) was about −1.7. For the same compound, the “approximate expected net charge” value ([2]; pH 10) was about −2.5 and the “approximate expected net charge” value ([2]; pH 11) was about −3.
